Experimental data from patent US20030203888A1, “Chromophores” (priority 2001, published 2003).

Tests used:
[1] = biological target: BSA (Bos taurus, UniProt P02769); experiment: 'Blank' bioconjugation: non-covalent binding of unreactive fluorophore to BSA (gel filtration, UV analysis); conditions: after PD-10 gel filtration
Description: (§1) Experiments have been undertaken to determine the level of non-covalent binding of fluorophore to the protein surface (BSA and avidin). ‘Blank’ bioconjugations using mixtures of the unreactive DPCH and DPBC derivatives 2,3-dihydroxy-5-(4-methoxyphenyl)-15-(4-acetomidophenyl)chlorin (higher Rf regioisomer) and 2,3,12,13-tetrahydroxy-5-(4-acetomidophenyl)-15-(4-methoxyphenyl) bacteriochlorin (higher Rf […] stereoisomer) with both BSA and avidin have been carried out and the resultant protein solutions have been purified by gel filtration (PD-10) as described for the reactive probes described earlier. […] For BSA or avidin, 1 unreactive DPCH binds to each protein molecule, whereas DPBC is less than 1 due probably to its increased polarity and non-amphiphilic nature.

[2] = biological target: avidin (Gallus gallus, UniProt P02701); experiment: 'Blank' bioconjugation: non-covalent binding of unreactive fluorophore to avidin (gel filtration, UV analysis); conditions: after PD-10 gel filtration
Chain of avidin (P02701 25-152, species assumed): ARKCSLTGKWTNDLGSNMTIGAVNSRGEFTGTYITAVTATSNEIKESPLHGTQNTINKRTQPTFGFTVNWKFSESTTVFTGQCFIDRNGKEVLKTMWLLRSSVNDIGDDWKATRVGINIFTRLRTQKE
Description: as §1

[3] = Solubility in water of the chloride salts
[4] = tested on: Colo 320 cells; experiment: Standard photocytotoxicity test (MTT); type: cell-based, human; conditions: 3.6J/cm2 filtered red light, MTT % cell survival
Experimental: Cells are grown to confluence or appropriate density then washed 2 times with PBS (phosphate buffered saline) to eliminate all trace of FBS (fretal bovine serum). Cell density is adjusted to 1.5×10^6 cells/ml in medium without FBS and these are then incubated for 1 hour in the dark (37 degrees C., 5% CO2) with a range of photosensitiser/conjugate concentrations. Post incubation, cells are washed further with medium (without FBS)to eliminate unbound photosensitiser, then resuspended and seeded in 96 wells plates (1×10^5 cells/well) in quadruplate. Plates are then either irradiated (3.6J/cm2 of filtered red light […]) or left in the dark as “dark toxicity controls” for the same period of time (14 minutes).Five microliters (5%/well) of FBS is added after the irradiation/dark period and the plates are returned to the incubator overnight. Twenty to 24 hours after treatment, 10 μl of MTT solution (Sigma Thiazolyl blue, 4.8×10^−4M in PBS)is added per well and the plates are returned to the incubator until color develops (between 1 and 4 hours). A solution of acid-alcohol (100 μl/well of 0.04N HCL in isopropanol) is the added and mixed thoroughly to dissolve the dark blue crystals. Plates are then read at 570 nm in a microplate reader and the % cell survival calculated against controls. […]

[5] = tested on: Colo 320 cells; experiment: FACS conjugate binding analysis; type: cell-based, human; conditions: FITC detection, 3 repeats
Experimental: Wash flask of cells with phosphate buffered saline (PBS) pH 7.3. Treat with 5 mM EDTA in PBS for 10 min at 37C. Tap flask to dislodge cells, place in 50 mL polypropylene tube and pellet at 400 g 3 min. Resuspend in 10 mL PBS and count cells. Place 2×10^5 in FACS tube (Falcon 2054) and wash with 1 mL PBS by centrifugation (400 g 3 min) and resuspension by agitation
Block cells in 500 μL 2% Marvel milk powder in PBS, 1% BSA 30 min RT
Wash cells in 1 mL PBS/BSA/Azide centifuge and resuspend pellet (as above)
Add 10 μL appropriate antibody dilution. Incubate on ice 1 h
Add 50 μL Rabbit anti-mouse:FITC (Serotec, 1/100 dilution) and incubate on ice in the dark 1 h
Wash cells in 1 mL PBS/BSA/Azide centiflige (as above) and resuspend pellet in 400 μL PBS/BSA/Azide.
Run samples through FACS machine using CellQuest acquisition software to collect data.
FACS analyses were run in accordance with Methodology Description 5.

Chain of BSA (P02769 25-607): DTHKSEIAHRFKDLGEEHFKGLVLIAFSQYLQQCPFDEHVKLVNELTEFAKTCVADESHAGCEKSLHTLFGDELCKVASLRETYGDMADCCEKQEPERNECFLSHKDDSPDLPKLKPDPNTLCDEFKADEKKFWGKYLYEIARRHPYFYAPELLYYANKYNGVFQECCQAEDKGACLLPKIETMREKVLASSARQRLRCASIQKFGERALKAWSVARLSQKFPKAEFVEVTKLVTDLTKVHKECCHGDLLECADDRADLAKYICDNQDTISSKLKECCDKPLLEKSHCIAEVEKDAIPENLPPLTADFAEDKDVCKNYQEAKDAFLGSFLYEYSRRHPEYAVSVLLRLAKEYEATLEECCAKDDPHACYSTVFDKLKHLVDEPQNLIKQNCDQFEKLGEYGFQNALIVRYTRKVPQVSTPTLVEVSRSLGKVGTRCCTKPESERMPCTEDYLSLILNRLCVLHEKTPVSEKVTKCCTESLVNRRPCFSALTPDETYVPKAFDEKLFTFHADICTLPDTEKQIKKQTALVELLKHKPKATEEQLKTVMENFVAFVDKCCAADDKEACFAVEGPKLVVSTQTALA

Molecule: COc1ccc(-c2c3nc(cc4ccc([nH]4)c(-c4ccc(NC(C)=O)cc4)c4nc(cc5ccc2[nH]5)C=C4)C(O)C3O)cc1 (stereo not shown) [Example 10, 17,18-Dihydroxy-5-(4-acetamidophenyl)-15-(4-methoxyphenyl)chlorin]
- unreactive fluorophore molecules non-covalently bound to each protein molecule [1]: 1
- unreactive fluorophore molecules non-covalently bound to each protein molecule [2]: 1

Molecule: Oc1cc(O)cc(-c2c3nc(c(-c4cc(O)cc(O)c4)c4ccc([nH]4)c(-c4cc(O)cc(O)c4)c4nc(c(-c5ccc(N=C=S)cc5)c5ccc2[nH]5)C=C4)C=C3)c1
- melting point: > 350 °C (dec.)

Molecule: COc1ccc(-c2c3nc(cc4ccc([nH]4)c(-c4ccc(NC(C)=O)cc4)c4nc(cc5ccc2[nH]5)C(O)C4O)C(O)C3O)cc1 (stereo not shown) [Example 12, 7,8,17,18-tetrahydroxy-5-(4-acetamidophenyl)-15-(4-methoxyphenyl)bacteriochlorin]
- unreactive fluorophore molecules non-covalently bound to each protein molecule [1]: less than 1
- unreactive fluorophore molecules non-covalently bound to each protein molecule [2]: less than 1

Molecule: Nc1ccc(-c2c3nc(c(-c4cc(O)cc(O)c4)c4ccc([nH]4)c(-c4cc(O)cc(O)c4)c4nc(c(-c5cc(O)cc(O)c5)c5ccc2[nH]5)C=C4)C=C3)cc1 [OH6-NH2, 5-(4-Aminophenyl)-10,15,20-tris(3,5-dihydroxyphenyl)porphyrin]
- melting point: > 350 °C (dec.)

Molecule: S=C=Nc1ccc(-c2c3nc(c(-c4cccnc4)c4ccc([nH]4)c(-c4cccnc4)c4nc(c(-c5cccnc5)c5ccc2[nH]5)C=C4)C=C3)cc1
- melting point: > 350 °C (dec.)

Molecule: S=C=Nc1ccc(-c2c3nc(c(-c4ccncc4)c4ccc([nH]4)c(-c4ccncc4)c4nc(c(-c5ccncc5)c5ccc2[nH]5)C=C4)C=C3)cc1
- melting point: > 350 °C (dec.)

Molecule: 5-(4-Isothiocyanatophenyl)-10,15,20-tris(4-N-methylpyridiniumyl) porphyrin Trichloride [Example 6]
- solubility in water [3]: water soluble

B1: OH6/17.1A: OH6 conjugated with 17.1A monoclonal antibody, MRs of 2.5, 5, 10 and 20 (conjugate, chains of the INN, looked up)
VH: QVQLQQSGAELVRPGTSVKVSCKASGYAFTNYLIEWVKQRPGQGLEWIGVINPGSGGTNYNEKFKGKATLTADKSSSTAYMQLSSLTSDDSAVYFCARDGPWFAYWGQGTLVTVSA
VL: NIVMTQSPKSMSMSVGERVTLTCKASENVVTYVSWYQQKPEQSPKLLIYGASNRYTGVPDRFTGSGSATDFTLTISSVQAEDLADYHCGQGYSYPYTFGGGTKLEIK
modifications: conjugated to OH6
- photocytotoxicity following irradiation [4]: significant increase in cytotoxicity on irradiation
- binding to Colo 320 cells [5]: has bound to the cells

B2: PYR/17.1A: PYR conjugated with 17.1A monoclonal antibody (conjugate, chains of the INN, looked up)
VH: QVQLQQSGAELVRPGTSVKVSCKASGYAFTNYLIEWVKQRPGQGLEWIGVINPGSGGTNYNEKFKGKATLTADKSSSTAYMQLSSLTSDDSAVYFCARDGPWFAYWGQGTLVTVSA
VL: NIVMTQSPKSMSMSVGERVTLTCKASENVVTYVSWYQQKPEQSPKLLIYGASNRYTGVPDRFTGSGSATDFTLTISSVQAEDLADYHCGQGYSYPYTFGGGTKLEIK
modifications: conjugated to PYR
notes: PYR conjugated with 17.1A monoclonal antibody
- photocytotoxicity following irradiation [4]: significant increase in cytotoxicity on irradiation
- binding to Colo 320 cells [5]: has bound to the cells
